ChEMBL document CHEMBL5665443, “Enzyme Inhibitor Single Concentration assay results for EUbOPEN Chemogenomics Library” (2024)

Key:
[1] = target: Methyl-CpG-binding domain protein 4 (Homo sapiens) (UniProt O95243); conditions: Compound Concentration 10.0 uM;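 also: MBD4 activity read as fluorescence at 594 nm from cleavage and release of a quenched duplex DNA oligonucleotide, with APE1 coupled to incise the strand and raise turnover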
[2] = target: DNA-3-methyladenine glycosylase (Homo sapiens) (UniProt P29372); conditions: Compound Concentration 10.0 uM;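 also: enzyme assay where MPG cuts a quenched duplex DNA oligonucleotide probe, paired with APE1 for strand incision and turnover, read as fluorescence at 594 nm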
Chain of DNA-3-methyladenine glycosylase (Homo sapiens) (P29372 whole entry): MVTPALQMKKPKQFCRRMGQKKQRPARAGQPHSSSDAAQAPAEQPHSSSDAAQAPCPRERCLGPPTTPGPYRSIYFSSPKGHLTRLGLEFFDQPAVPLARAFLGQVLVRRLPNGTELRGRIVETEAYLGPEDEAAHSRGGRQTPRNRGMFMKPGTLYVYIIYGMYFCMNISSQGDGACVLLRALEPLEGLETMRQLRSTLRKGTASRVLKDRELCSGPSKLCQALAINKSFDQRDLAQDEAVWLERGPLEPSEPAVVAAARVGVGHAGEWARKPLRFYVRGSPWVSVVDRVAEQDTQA

[3] = target: N-glycosylase/DNA lyase (Homo sapiens) (UniProt O15527); conditions: Compound Concentration 10.0 uM, Hit No;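 also: OGG1 cleavage of a quenched duplex DNA oligonucleotide, coupled to APE1 for strand incision, read as fluorescence at 594 nm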
Chain of N-glycosylase/DNA lyase (Homo sapiens) (O15527 whole entry): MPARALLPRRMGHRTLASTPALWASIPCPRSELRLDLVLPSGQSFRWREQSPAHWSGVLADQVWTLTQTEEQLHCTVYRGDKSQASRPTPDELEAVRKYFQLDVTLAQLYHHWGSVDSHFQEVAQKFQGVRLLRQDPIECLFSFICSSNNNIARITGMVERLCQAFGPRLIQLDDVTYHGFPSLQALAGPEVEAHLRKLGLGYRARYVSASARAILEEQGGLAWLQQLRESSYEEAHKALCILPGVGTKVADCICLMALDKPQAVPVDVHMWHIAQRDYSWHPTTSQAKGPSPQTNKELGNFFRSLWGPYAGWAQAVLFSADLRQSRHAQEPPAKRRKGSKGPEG

[4] = target: G/T mismatch-specific thymine DNA glycosylase (Homo sapiens) (UniProt Q13569); conditions: Compound Concentration 10.0 uM;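 also: human TDG cleavage of quenched duplex DNA oligonucleotides coupled to APE1, strand release read as fluorescence at 594 nm, inhibition of TDG activity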
Chain of G/T mismatch-specific thymine DNA glycosylase (Homo sapiens) (Q13569 whole entry): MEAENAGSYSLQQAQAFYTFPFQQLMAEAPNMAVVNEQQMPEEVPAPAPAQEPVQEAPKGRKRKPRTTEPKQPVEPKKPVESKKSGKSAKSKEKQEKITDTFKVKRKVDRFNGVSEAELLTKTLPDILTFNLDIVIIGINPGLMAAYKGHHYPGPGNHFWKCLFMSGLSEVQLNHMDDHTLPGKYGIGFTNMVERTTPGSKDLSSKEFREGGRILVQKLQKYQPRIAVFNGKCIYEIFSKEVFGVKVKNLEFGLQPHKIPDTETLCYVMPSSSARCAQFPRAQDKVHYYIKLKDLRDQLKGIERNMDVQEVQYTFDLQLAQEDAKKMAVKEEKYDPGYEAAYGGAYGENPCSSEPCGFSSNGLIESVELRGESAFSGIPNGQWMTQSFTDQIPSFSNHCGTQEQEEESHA

[5] = target: Endonuclease 8-like 1 (Homo sapiens) (UniProt Q96FI4); conditions: Compound Concentration 10.0 uM, Hit No;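 also: fluorescence at 594 nm from quenched duplex DNA oligonucleotides released by NEIL1 cleavage and strand separation, reported as reduction of this enzyme activity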
Chain of Endonuclease 8-like 1 (Homo sapiens) (Q96FI4 whole entry): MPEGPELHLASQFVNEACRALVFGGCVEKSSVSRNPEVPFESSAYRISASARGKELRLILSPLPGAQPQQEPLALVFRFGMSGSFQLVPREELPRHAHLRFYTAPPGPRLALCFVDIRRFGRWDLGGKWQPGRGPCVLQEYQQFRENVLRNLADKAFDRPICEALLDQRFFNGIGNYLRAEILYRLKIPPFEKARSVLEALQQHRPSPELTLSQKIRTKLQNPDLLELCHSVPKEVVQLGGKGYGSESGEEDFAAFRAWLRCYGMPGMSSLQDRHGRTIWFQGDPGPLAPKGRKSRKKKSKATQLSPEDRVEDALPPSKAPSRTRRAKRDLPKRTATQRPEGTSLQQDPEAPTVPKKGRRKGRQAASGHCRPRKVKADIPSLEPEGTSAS

[6] = target: T1, Adenine DNA glycosylase (Homo sapiens) (UniProt Q9UIF7); conditions: Compound Concentration 10.0 uM, Hit No;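 also: human MUTYH activity read as 594 nm fluorescence from cleavage and release of a quenched DNA duplex, coupled with APE1 for strand incision, lower signal meaning inhibition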
T1 sequence (whole entry): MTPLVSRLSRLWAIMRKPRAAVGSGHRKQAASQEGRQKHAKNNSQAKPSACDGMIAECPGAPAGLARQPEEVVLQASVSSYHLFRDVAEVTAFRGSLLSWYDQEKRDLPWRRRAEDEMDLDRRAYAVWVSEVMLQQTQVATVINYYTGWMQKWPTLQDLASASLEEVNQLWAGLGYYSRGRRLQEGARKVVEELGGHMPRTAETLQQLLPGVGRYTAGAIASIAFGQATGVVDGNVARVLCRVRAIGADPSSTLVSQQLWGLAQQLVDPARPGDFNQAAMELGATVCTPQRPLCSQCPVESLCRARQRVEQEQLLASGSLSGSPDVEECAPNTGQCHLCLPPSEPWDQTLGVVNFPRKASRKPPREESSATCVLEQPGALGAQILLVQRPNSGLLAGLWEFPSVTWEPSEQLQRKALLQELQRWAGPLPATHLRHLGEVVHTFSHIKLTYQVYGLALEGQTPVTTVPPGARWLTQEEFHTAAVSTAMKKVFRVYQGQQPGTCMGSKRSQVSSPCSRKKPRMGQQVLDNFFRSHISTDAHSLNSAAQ

[7] = target: T2, Endonuclease 8-like 2 (Homo sapiens) (UniProt Q969S2); conditions: Compound Concentration 10.0 uM, Hit No;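 also: fluorescence at 594 nm reports NEIL2 cutting and release of a quenched double-stranded DNA oligo substrate, reduced signal read as inhibition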
T2 sequence (whole entry): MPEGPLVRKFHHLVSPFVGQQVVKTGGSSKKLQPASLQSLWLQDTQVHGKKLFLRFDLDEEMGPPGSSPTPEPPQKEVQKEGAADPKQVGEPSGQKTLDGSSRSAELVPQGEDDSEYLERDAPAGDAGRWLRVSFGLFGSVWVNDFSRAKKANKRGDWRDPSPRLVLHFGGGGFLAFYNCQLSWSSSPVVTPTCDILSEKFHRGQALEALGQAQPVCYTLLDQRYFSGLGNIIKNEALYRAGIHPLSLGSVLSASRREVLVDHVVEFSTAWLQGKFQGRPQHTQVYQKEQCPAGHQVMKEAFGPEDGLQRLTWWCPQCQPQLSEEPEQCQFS

[8] = target: T3, Single-strand selective monofunctional uracil DNA glycosylase (Homo sapiens) (UniProt Q53HV7); conditions: Compound Concentration 10.0 uM, Hit No;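 also: enzymatic SMUG1 assay coupled with APE1, reading fluorescence at 594 nm released when a quenched double-stranded DNA oligonucleotide substrate is cleaved and separated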
T3 sequence (whole entry): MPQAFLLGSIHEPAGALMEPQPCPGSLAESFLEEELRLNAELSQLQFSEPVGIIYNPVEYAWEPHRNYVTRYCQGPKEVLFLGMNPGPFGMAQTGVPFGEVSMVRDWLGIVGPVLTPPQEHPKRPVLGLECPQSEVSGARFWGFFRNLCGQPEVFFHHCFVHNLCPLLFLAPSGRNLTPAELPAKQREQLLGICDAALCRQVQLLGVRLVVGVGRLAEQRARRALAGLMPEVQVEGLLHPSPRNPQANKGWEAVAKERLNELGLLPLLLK

[9] = target: Uracil-DNA glycosylase (Homo sapiens) (UniProt P13051); conditions: Compound Concentration 10.0 uM, Hit No;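 also: UNG excision on a quenched double-stranded DNA oligo probe, with APE1 added for strand incision and turnover, read as fluorescence at 594 nm as strands separate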
Chain of Uracil-DNA glycosylase (Homo sapiens) (P13051 whole entry): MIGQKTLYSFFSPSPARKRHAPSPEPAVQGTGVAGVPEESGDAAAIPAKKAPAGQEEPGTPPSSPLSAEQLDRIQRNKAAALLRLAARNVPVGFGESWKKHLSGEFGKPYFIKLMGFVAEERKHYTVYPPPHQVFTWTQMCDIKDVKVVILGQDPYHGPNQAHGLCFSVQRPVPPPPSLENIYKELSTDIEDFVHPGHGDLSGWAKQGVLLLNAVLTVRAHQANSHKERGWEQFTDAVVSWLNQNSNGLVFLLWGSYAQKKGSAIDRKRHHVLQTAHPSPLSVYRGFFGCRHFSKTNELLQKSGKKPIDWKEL

Chain of Methyl-CpG-binding domain protein 4 (Homo sapiens) (O95243 whole entry, the tested form may be a part): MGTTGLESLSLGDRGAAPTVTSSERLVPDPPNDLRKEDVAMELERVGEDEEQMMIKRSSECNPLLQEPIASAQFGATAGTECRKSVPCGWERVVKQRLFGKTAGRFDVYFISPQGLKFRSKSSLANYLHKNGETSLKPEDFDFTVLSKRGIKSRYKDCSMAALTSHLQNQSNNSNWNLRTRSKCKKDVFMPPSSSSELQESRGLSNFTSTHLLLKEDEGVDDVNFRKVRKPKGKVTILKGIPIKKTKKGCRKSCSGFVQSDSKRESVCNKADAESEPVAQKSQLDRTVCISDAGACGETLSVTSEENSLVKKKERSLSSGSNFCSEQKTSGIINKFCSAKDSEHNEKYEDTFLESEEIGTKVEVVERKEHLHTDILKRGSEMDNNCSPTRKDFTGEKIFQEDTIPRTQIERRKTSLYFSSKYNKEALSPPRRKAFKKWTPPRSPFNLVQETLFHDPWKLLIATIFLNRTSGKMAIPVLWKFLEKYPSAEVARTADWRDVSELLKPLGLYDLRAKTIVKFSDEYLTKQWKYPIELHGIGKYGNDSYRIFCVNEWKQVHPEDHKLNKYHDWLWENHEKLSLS

Structure (SMILES)	inhibition ([1]; Hit No) [%]	inhibition ([2]; Hit No) [%]	inhibition [3] [%]	inhibition ([4]; Hit No) [%]	inhibition [5] [%]	inhibition [6] [%]	inhibition [7] [%]	inhibition [8] [%]	inhibition [9] [%]	inhibition ([2]; Hit Yes) [%]	inhibition ([4]; Hit Yes) [%]	inhibition ([1]; Hit Yes) [%]
COc1cc2nc(N3CCN(C(=O)c4ccco4)CC3)nc(N)c2cc1OC	7.24	11.1	0.771	4.76	5.73	14	10	-2.6	-8.11			
COCCn1c(C)c(C)s/c1=N\C(=O)C1C(C)(C)C1(C)C	-7.23	-8.69	5.33	7.06	3.06	20.8	1.51	-0.421	-7.32			
C/C(=N\NC(=O)[C@@H]1C(=O)NC[C@H]1c1ccccc1)c1cccc(Br)c1	0.963	-1.9	-0.141	17.2	-1.98	11	6.5	9.22	-1.98			
Cc1ccccc1C(=O)Nc1ccc(C(=O)N2CCCC(O)c3cc(Cl)ccc32)c(C)c1 (centres undefined)	-1.3	0.836	-1.2	18.4	6.76	12.2	1.01	-8.66	-8.3			
CSc1ccc(C(=O)N[C@@H]2CCCC[C@@H]2NC(=O)CNC(=O)c2cc(C(F)(F)F)ccc2NC(=O)NC(C)C)cc1	13.3	-1.67	-0.224	20.7	0.537	2.07	14.5	0.0151	-0.695			
CC(Cc1ccc(O)c(O)c1)C(C)Cc1ccc(O)c(O)c1 (centres undefined)	58.5	19.4	28.8	40	12.4	35.6	0.265	-6.33	1.91			
COc1ccc2[nH]cc(CCNC(C)=O)c2c1	-1.65	-3.95	-4.66	5.88	1.13	19.4	1.51	-7.74	-7.83			
CCCCc1oc2ccccc2c1C(=O)c1cc(I)c(OCCN(CC)CC)c(I)c1	28.2	5.3	0.672	30.6		-0.487	-6.36	15.3	1.42			
Cc1nnc2n1-c1sc(CCC(=O)N3CCOCC3)cc1C(c1ccccc1Cl)=NC2	-1.19	-4.33	0.211	14.6	5.28	16.7	7.25	-7.88	-6.5			
COc1ccc(CNC(=O)c2cc(-c3cncc(Cl)c3)cnc2-c2ccccn2)nc1OC	0.324	-0.668	-1.43	11.4	-8.51	-1	6.5	-1.29	-5.71			
COc1ccc(S(=O)(=O)N2c3ccc(Cl)cc3[C@](O)(c3ccccc3Cl)[C@@H]2C(=O)N2CCC[C@H]2C(N)=O)cc1OC	-7.23	8.66	-5.95	10.6	-2.72	28.9	-0.733	-8.03	-8.37			
O=C(Nc1ccc(Cl)nc1)c1ccc(Cl)cc1	19.3	18.7	6.76	21.2	6.68	26.6	5.25	3.71	1.37			
CCOc1nc2cccc(C(=O)O)c2n1Cc1ccc(-c2ccccc2-c2nnn[nH]2)cc1	1.2	-3.68	0.813	6.47	2.02	2.84	7	-0.0333	-8.46			
CC(C1CC2CCC1C2)n1c(S)nnc1-c1ccco1 (centres undefined)	23.6	19.5	-7.6	22.6	1.64	19.9	9.84	13.7	-6.26			
Cn1c(SCc2ccc(C(C)(C)C)cc2)nc(N)cc1=O	12.4	9.09	-4.44	8.05	-0.435	6.33	5.25	-4.37	-6.37			
CC(C)(C#Cc1ccc(NC(=O)COc2ccccc2C(=O)c2ccccc2)c(Cl)c1)C(=O)O	83.7	115	49.5	61.6	-9.68	16.2	15.6	12.2	7.11			
CC[C@@H]1C(=O)N(C)c2cnc(Nc3ccc(C(=O)NC4CCN(C)CC4)cc3OC)nc2N1C1CCCC1	33	7.81	-5.59	69.8	2.78	38.1		23.4	13.3			
CCc1ccc(OCc2ccccc2C(=O)Nc2ccc3nc(C)cc(N)c3c2)cc1	43.2		12.5		-4.06	77.8	16.5	-3.13	-2.29	71.5	82.5	
COc1ccccc1/C=N/NC(=O)COc1ccc(Cl)cc1C	18.4	9.76	2.66	18.2	8.6	10.8	-3.15	14	-5.19			
CCCCCNC(=N)N/N=C/c1c[nH]c2ccc(OC)cc12			2.43		-9.54	114	20.7	-3.67	-3.68	108	103	114
CCOC(=O)c1cc(C#N)c(N2CCC(C(=O)NS(=O)(=O)Cc3ccccc3)CC2)nc1C	12	0.797	4.63	22.6	-0.649	13.3	-3.73	7.04	-6.55			
O=C(O)CC/C=C\C[C@@H]1CO[C@H](c2ccccc2Cl)O[C@@H]1c1ccccc1O	0.092	4.5	-7.71	13.8	-2.87	8.47	0.265	0.5	-7.83			
Cc1noc(-c2ccc(-c3ccc(CC(=O)O)cc3)cc2)c1NC(=O)O[C@H](C)c1ccccc1Cl	45.9	10.4	10.8	43.6	-3.47	53.1	-4.48	-3.86	-9.06			
CC(C)NCC(O)COc1ccc(CCOCC2CC2)cc1 (centres undefined)	4.74	-1.52	-0.494	21.4	-5.99	-5.48	-0.983	5.49	-7.33			
